Laboratory results reported in patent EP4183391A1, “PHARMACEUTICAL COMPOSITION AND USE THEREOF” (Shenzhen Salubris Pharmaceuticals Co., Ltd., priority 2020, dated 2022).
Where a name gives a salt, the structure may show the parent alone.

Key:
[1] = tested on: male ICR mice; experiment: Mouse tail suspension model; format: in vivo; conditions: immobility time
Procedure: 110 male ICR mice were accommodated in the experimental environment for 3 days prior to the test, with 10 animals reserved for future use.
According to the experimental design, the mice were randomly grouped according to their body weight at one day before administration.
The time of initiation of administration was defined as 0 min.
The 2 cm tail end of the mouse was attached to a horizontal metal stick so that the mouse was suspended and the immobility time period of the mouse was observed and recorded over a period of 6 min. The last 4 min of immobility time period was recorded by a timer and was used for data analysis.
Excel software was used to collect data. Data were analyzed using Prism (Graphpad software, Inc.) software, in which variance between two groups was analyzed using the t-test method, and one-way ANOVA with additional Dunnett's multiple comparison test was performed among each animal group. p<0.05 is considered as having a significant difference.

[2] = tested on: male C57BL/6J mice; experiment: Relieving a cough in mice, concentrated ammonia steam (Example 5); format: in vivo; conditions: 60 min
Procedure: Ammonium Hydroxide, ACS Reagent, 28.0-30.0% NH3, AI LAN (Shanghai) Chemical Technology Co., Ltd., batch no. CEC1070004. Ultrasonic Nebulizer WH-2000, Guangdong Yuehua Medical Equipment Factory Co., Ltd.
88 male C57BL/6J mice, weighing 20-22 g, were purchased from Beijing Vital River Laboratory Animal Technology Co., Ltd.
Mice in each group were administered with 1 dose of the corresponding experimental drugs to be tested in a volume of 10 ml/kg. After 60 min of administration, the mice were placed in an inverted 600 ml beaker filled with concentrated ammonia saturated steam and immediately timed for 10 s, and then the mice were removed and placed in another inverted 600 ml beaker to observe the coughing of the mice and recorded the total coughs within 5 min.
All experimental data are expressed as means. Statistical analysis was carried out using Graphad Prism 5 software. One-way ANOVA test was used for comparison between groups. SNK was used for comparison between groups with equal variance. Dunnett's T3 was used for comparison between groups with unequal variance. P < 0.05 indicated statistical significance.

[3] = Pharmacokinetic experiments in dogs; conditions: 14 mg/kg single gavage, Day1, analyte deDM in plasma
Procedure: Reagents: Sodium chloride injection, EDTA-K2, acetonitrile and formic acid were commercially available.
Instrument: AB SCIEX 5500 triple quadrupole mass spectrometer.
18 Beagle dogs, half male and half female, weighing 6 kg-10 kg, were purchased from Jiangsu Yadong Experimental Animal Research Institute Co., Ltd.
After single gavage administration in dogs, about 1 mL of blood was collected with a scalp needle from a vein in the forelimb or hindlimb at 0 min (before administration), 5 min, 15 min, 30 min, 1 h, 2 h, 4 h, 8 h and 24 h in a blood collection tube containing EDTA-K2 anticoagulant and then centrifuged at 4000 rpm for 10 min to separate the plasma which was stored at ≤- 65°C for testing.
The standard curve concentrations of dextromethorphan in plasma were 1 ng/mL, 2 ng/mL, 10 ng/mL, 50 ng/mL, 200 ng/mL, 400 ng/mL, 600 ng/mL and 1000 ng/mL and QC concentrations were 3 ng/mL, 30 ng/mL, 500 ng/mL and 800 ng/mL.

Compound: CC(NC(C)(C)C)C(=O)c1cccc(Cl)c1 (stereo not drawn) [Bup, bupropion hydrochloride, reference compound]
- Inhibition rate ([1]; 50 mg/kg oral): 56.00%^∗∗

Compound: CC(NC(C)(C)C)C(=O)c1cccc(Cl)c1 (stereo not drawn) [Bupropion, 1-(3-chlorophenyl)-2-[(1,1-dimethylethyl)amino]-1-propanone, reference compound]
- Cough inhibition rate% ([2]; 30 mg/kg): 9.1%

Compound: [2H]C([2H])([2H])Oc1ccc2c(c1)[C@]13CCCC[C@@H]1[C@H](C2)N(C([2H])([2H])[2H])CC3 [Deuterated dextromethorphan]
- Cough inhibition rate% ([2]; 3 mg/kg): 11.6%
- Cough inhibition rate% ([2]; 12 mg/kg): 22.5%

Compound: deuterated dextromethorphan hydrobromide monohydrate [deDM]
- Inhibition rate ([1]; 10 mg/kg oral): 5.0%
- Inhibition rate ([1]; 12 mg/kg oral): 2.1%
- Inhibition rate ([1]; 15 mg/kg oral): 5.9%
- Inhibition rate ([1]; 18 mg/kg oral): 4.1%
- AUClast ([3]; Female): 153 h^∗ng/ml
- Cmax ([3]; Female): 60 ng/mL
- AUClast ([3]; Male): 383 h^∗ng/ml
- Cmax ([3]; Male): 157 ng/mL
